Source: patent US10457639B2, “Fluorescent regulators of RASSF1A expression and human cancer cell proliferation” (GEORGETOWN UNIVERSITY, priority 2008, dated 2019)

Assays:
[1] = system: PC3 cells; test: Cell growth assay, trypan blue dye exclusion count; format: cell-based
Protocol: Cell Line and Cell Growth Assay. Human prostate cancer cell line PC-3 was procured from the American Type Cell Culture Collection (Manassas, Va.). Cells were grown in IMEM without phenol red (Invitrogen, Carlsbad, Calif.) with 10% fetal bovine serum, 2 mM glutamine, 100 U/mL penicillin G sodium, and 100 μg/mL streptomycin sulfate (Sigma, St. Louis, Mo.) in the presence of 5% CO2 at 37° C. For the cell growth experiment, PC-3 cells were seeded in 6-well plates in triplicate with an initial density of 2×10^3 cells per well. Twenty-four hours after seeding, the attached cells were treated with vehicle (DMSO) or 1, 5, 15, 30 and 60 μM compound. After another twenty-four hours, the cells were washed with 1×PBS, trypsinized and re-suspended in complete growth medium. Trypan blue (0.4%) was added to the cell suspension and both live and dead cells were counted using a hemocytometer.
Compounds 6-10 were screened for growth inhibition in PC-3 human prostate cancer cells using previously reported methods (Table 1; Sinha et al. The Prostate. 2006, 66, 1257-1265). […] This was unexpected, since the methyl moiety of mahanine is in the 3-position. Compound 9, with its GI50 value near that of the compound 6 series (compounds 6, 6a, 8) and a deprotected hydroxyl group in the 2-position, implies that whatever hindrance is imposed by a methyl in the 3-position can be partially overcome if steric bulk at the 2-position is reduced. Indeed, looking at the structure of mahanine, the restraint of the ether cycle may provide enough reduction of apparent bulk at the 2-position to moderate its methyl in the 3-position. Additionally, the ether ring system puts the equivalent of a methyl group in the 1-position, which could also be aiding in the low μM activity of mahanine, if the relatively lower values for the compound 6 series are any indication. Moreover, analyzing the structure of compound 10 based on the same criteria, the double-bonded carbon of the ether cycle in the 3-position along with bulk off the 2-position might explain its lesser growth inhibition when compared to mahanine, while the methyl in the 1-position still gives it better activity than compounds 7 and 7a.

[2] = system: RASSF1A; test: RT-PCR of RASSF1A mRNA in treated PC-3 cells; format: cell-based, human; conditions: 5 μM, 24 hours
Protocol: Representative photograph of an experiment repeated thrice. PC-3 cells were treated 24 hours with either 15 μM for compounds 6, 7, 7a, 8, 9, 10 or 5 μM for compound KED-4-69 (compound 6a) before RNA extraction and RT-PCR amplification.
Reverse Transcriptase-polymerase Chain Reaction (RT-PCR). From PC-3 cells incubated 24 hours with either 15 μM of compound 6, 7, 7a, 8, 9, 10 or 5 μM of KED-4-69 (compound 6a), RNA was extracted with TRIzol solution (Invitrogen, Carlsbad, Calif.) and genes of interest were amplified using 500 ng of total RNA reverse-transcribed to cDNA using a Superscript II kit (Invitrogen) with random hexamers. Human-specific primers were designed using the Primer Quest program and purchased from Integrated DNA Technologies, Inc. (Coralville, Iowa). Their sequences and product band sizes are: cyclin D1 forward primer 5′-[…]-3′ (SEQ ID NO:1), cyclin D1 reverse primer 5′-[…]-3′ (SEQ ID NO:2) (475 bp) and GAPDH forward primer: 5′-CCA […]-3′ (SEQ ID NO:3), GAPDH reverse primer: 5′-TCTAGACGGCAG GTCAGGTCCACC-3′ (SEQ ID NO:4) (598 bp). PCRs were initiated at 94° C. for 2 min, followed by 28 cycles of 94° C. for 1 min, 1 min annealing temperature, 72° C. for 1 min, and final extension at 72° C. for 5 min. The annealing temperature for cyclin D1 and GAPDH was 60° C. Primers and PCR conditions for RASSF1A are used as described by Rong et al. (Oncogene. 2004, 23, 8216-8230). After amplification, PCR products were separated on 1.5% agarose gels and visualized by ethidium bromide fluorescence using the Fuji LAS-1000 Imager. Images were captured and imported to Adobe Photoshop. Band intensities were quantified by using ImageJ software (NIH, Bethesda, Md.).
It has been reported that mRNA levels of RASSF1A correlate to its protein expression levels (Rong et al. Oncogene, 2004, 23: 8216-8230). To investigate the effects of the synthetic compounds on RASSF1A and cyclin D1 expression, levels of the respective mRNAs in treated cells compared to control were analyzed (FIG. 3). […] Because overexpression of cyclin D1 is associated with tumorigenicity and proliferation in a variety of tumors, including prostate cancers, this downregulation provides a cancer treatment method (Chen, Y. et al. Oncogene. 1998, 16, 1913-1920; Musgrove, E. A. et al. Proc. Natl. Acad. Sci. USA. 1994, 91, 8022-8026).

[3] = target: T1, DNMT3a (Homo sapiens, UniProt Q9Y6K1); test: Multiphoton laser imaging, DNMT3a antibody staining; format: cell-based; conditions: PC-3 cells, 5 μM (data not shown)
T1 construct: treated with propidium iodide (nuclear localization) and DNMT3a or DNMT3b; endogenous in cells; host or cells: PC-3 human prostate cancer cells
T1 sequence (Q9Y6K1 whole entry, looked up): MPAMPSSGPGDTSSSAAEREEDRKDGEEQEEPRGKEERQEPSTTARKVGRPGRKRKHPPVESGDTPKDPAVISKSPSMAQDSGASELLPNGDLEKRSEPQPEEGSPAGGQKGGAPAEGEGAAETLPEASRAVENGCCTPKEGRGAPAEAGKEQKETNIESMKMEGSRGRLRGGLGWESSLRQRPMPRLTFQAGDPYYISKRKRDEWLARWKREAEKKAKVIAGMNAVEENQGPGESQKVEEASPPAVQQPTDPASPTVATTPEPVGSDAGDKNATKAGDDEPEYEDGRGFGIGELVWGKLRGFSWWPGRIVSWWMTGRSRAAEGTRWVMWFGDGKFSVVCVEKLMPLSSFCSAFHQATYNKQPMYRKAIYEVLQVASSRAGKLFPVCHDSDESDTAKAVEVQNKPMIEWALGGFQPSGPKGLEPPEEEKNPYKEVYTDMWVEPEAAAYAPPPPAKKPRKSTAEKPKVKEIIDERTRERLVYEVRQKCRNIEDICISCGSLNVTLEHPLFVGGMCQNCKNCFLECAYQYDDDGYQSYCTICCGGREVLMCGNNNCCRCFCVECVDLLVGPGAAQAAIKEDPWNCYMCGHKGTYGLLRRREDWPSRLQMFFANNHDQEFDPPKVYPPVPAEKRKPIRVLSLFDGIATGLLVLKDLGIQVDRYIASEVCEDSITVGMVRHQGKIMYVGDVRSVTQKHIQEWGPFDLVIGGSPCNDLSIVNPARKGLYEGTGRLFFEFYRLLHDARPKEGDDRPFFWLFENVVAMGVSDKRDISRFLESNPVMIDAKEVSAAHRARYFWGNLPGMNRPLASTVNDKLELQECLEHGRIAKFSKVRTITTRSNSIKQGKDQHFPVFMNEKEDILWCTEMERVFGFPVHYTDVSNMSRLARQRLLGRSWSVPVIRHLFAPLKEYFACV
Protocol: Multiphoton laser imaging. After incubating slides with a fibronectin/cortactin solution for 30 minutes, PC-3 cells were plated onto the slides and incubated overnight. The cells were then treated with a 5 μM solution of compound 6a or DMSO control and incubated for 1-6 hour before washing with PBS. The slides were fixed with a 4% formaldehyde solution, washed with PBS then treated with propidium iodide (nuclear localization) and DNMT3a or DNMT3b. The compound was excited at 725 nm with a multiphoton laser and imaged with a 500-550 nm filter.
The dansyl moiety present in compound 6a allows it to visibly fluoresce at 552 nm when excited at 370 nm (FIG. 4A). After treating PC-3 cells with compound 6a, a multiphoton laser was used to excite the compound, and its emission from within the cells was observed by confocal microscopy (FIG. 4B-D). […] To further confirm the hypothesis that compound 6a interaction with DNMT is a crucial factor in the ultimate up-regulation of RASSF1A, the cell samples were stained with antibodies for the DNMT isoforms known to shuttle between the nucleus and the cytoplasm, DNMT3a and DNMT3b (Kim et al., EMBO J, 2002, 21: 4183-4195; Majumber et al., JBC, 2002, 277: 16048-16058). […] Thus, cytoplasmic sequestering of DNMT3b is implied as a mode of action for compound 6a.

COc1ccc2c(c1)[nH]c1c(C)c(OS(=O)(=O)c3cccc4c(N(C)C)cccc34)ccc12 [Compound 6a, 7-Methoxy-1-methyl-9H-carbazol-2-yl 5-(dimethylamino)naphthalene-1-sulfonate]
cytotoxicity compared to mahanine [1]: less cytotoxic than mahanine | GI50 ([1]; Homo sapiens, PC-3, concentration for 50% growth inhibition in PC3 cells, 24 hours of treatment, mean ± SEM of three observations, read-out: GI50): 1500 ± 110 nM | increase in activity compared to mahanine in inhibition of growth of prostate cancer cells ([1]; refers to Table 1): 5 fold | RASSF1A mRNA level versus control [2]: significant increase in RASSF1A | DNMT3a localization [3]: No corresponding effect was seen with DNMT3a
